Test results reported in patent US20100136541A1, “IDENTIFICATION AND VERIFICATION OF METHYLATION MARKER SEQUENCES” (Siemens Healthcare Diagnostics Inc., priority 2003, published 2010).

Legend:
Experiment in all cases: Affymetrix expression profiling of treated and untreated cell lines (restoration of gene expression)
Type in all cases: cell-based, human
GPX3 = settings: cell line LS174T, treated vs untreated
Procedure: (§1) Twenty well characterized, microdissected samples of colorectal cancer tissue were obtained from consenting patients. A second set of twenty, microdissected samples of normal adjacent colon tissue were also obtained. Total RNA was extracted from these samples using RNeasy kits (QIAGEN, Valencia, Calif.) according to the manufacturer's instructions. Expression profiling was performed using the GeneChip expression arrays from Affymetrix (Santa Clara, Calif.). Reverse transcription, second-strand synthesis, and probe generation was accomplished by standard Affymetrix protocols. The Human Genome U133A GeneChip, which contains more than 15,000 substantiated human genes, was hybridized, washed, and scanned according to Affymetrix protocols. Changes in cellular mRNA levels in the cancerous tissues were compared with mRNA levels in the normal colon tissues. GeneSpring v4.2 (Silicon Genetics, Redwood City, Calif.) was used to normalize and scale results and compare gene expression levels in the cancer tissue relative to that in the normal tissue.
(§2) Further support for the clinical importance of these sites comes from the changes seen in gene expression of the genes after treatment of cell lines with 5-aza-2′-deoxyctyidine. These values were obtained from Affymetrix expression profiling of treated and untreated cell lines using the procedure described above.

SCNN1B = settings: cell line LS123, treated vs untreated
Procedure: as §1, §2

CA4 = settings: cell line LS174T, treated vs untreated
Procedure: as §1, §2

Which “restoration of gene expression of GPX3 after treatment” value (GPX3) does the source give for `Nc1ncn([C@H]2C[C@H](O)[C@@H](CO)O2)c(=O)n1` [5-aza-2′-deoxycytidine] here?
The value was 8.5 fold.

And the “restoration of gene expression of SCNN1B after treatment” value (SCNN1B)?
The value was 4.1 fold.

What about the “restoration of gene expression of CA4 after treatment” value (CA4) of the same compound?
Its value is 2.8 fold.
